Test results taken from patent publication US5962525A, “6,7-disubstituted-2-aminotetralines active as immunomodulators and pharmaceutical compositions containing same” (Sigma-Tau, priority 1990, dated 1999).
Several values for one entry are separate records, joined by “and”; a condition that tells them apart may be missing. Equal entries are not always repeated. Where two headings read alike, the source gives them in different places.

Assays:
[1] = tested on: peritoneal macrophages of treated mice; target tumor cells; experiment: "In vitro-ex vivo" effect on the cytostatic activity of peritoneal macrophages; set-up: species or system mouse (B6 D2 F1); tumor targets human
Experimental: Assessment of the "in vitro-ex vivo" effect of ST 557, ST 563 and ST 570 on the cytostatic activity of peritoneal macrophages
Male B6 D2 F1 mice aged 7-9 weeks (5 animals per group) were used.
The compounds were administered i.p. (25 mg/kg/day), ST 557 and ST 563 were also administered per os (100 mg/kg/day) from day -5 to day -1 (peritoneal cell harvesting at day 0).
The macrophages and target tumor cell lines were prepared as in test 1 and their concentrations were adjusted to 1×10^6 M/ml and 5×10^4 cell/ml, respectively.
Volumes of tumor cells were added to the macrophage preparations so as to obtain Effector/Target ratios of 10:1, 20:1 and 40:1.
Each sample was pulsed with ^3 H-TdR for 18 hours in order to label the tumor cells, which were then collected on filters and counted in a beta-counter.
The macrophage cytostatic activity is expressed as percentage inhibition of tumor cell replication, by assessing the radioactivity incorporated by the tumor cells in each sample with respect to the maximum radioactivity incorporated by a sample consisting of tumor cells only. [formula]

splenocytes = experiment: "In vitro-ex vivo" effect on the mytogen (PHA, LPS)-induced splenocyte proliferation in mice; set-up: species or system mouse (B6 D2 F1); conditions: 25 mg/kg/day i.p.
Experimental: Assessment of the "in vitro-ex vivo" effect of ST 557, ST 563, ST 608 on the mytogen (PHA, LPS)-induced splenocyte proliferation in mice
Male B6 D2 F1 mice aged 6-10 weeks (4 animals per group) were used.
The compounds were administered i.p. 25 mg/kg/day, from day -5 to -1 (spleen excision at day 0).
PHA (active on T lymphocytes) and LPS (active on B lymphocytes) were used as mytogens. Each mytogen was tested at three different concentrations (suboptimal, optimal, superoptimal): 0.5, 4 and 6 mcg/ml/well and 0.5, 150 and 500 mcg/ml/well, respectively.
The experimental procedure was conducted substantially as described by Kirchner et al., "Splenic suppressor macrophages induced in mice by injection of C. parvum", J. Immunol., 1975, 115: 1212.
In particular, the cell suspensions obtained from the spleens of the animals of the same group were pooled and the cell concentration was adjusted to 5×10^6 cells/ml.
To volumes of 0.1 ml of each sample, equal volumes of the mytogen preparations were added so as to obtain, for each mytogen, the previously indicated final concentrations.
Each sample was prepared in triplicate in U-bottom microtiters. A control, to which 0.1 ml of medium were added instead of the mytogen, was also prepared. The control permits the extent of spontaneous proliferation in the absence of stimulation to be assessed.
The samples were incubated at 37° C. for 48 hours and then they were pulsed with 20 μl ^3 H-TdR (25 μCi/ml).
After 18 hours of further incubation, the cells were collected on filters and counted in a beta-counter.
The results of each sample are expressed by calculating the value of the area under the curve (AUC) obtained by plotting the values of the incorporated radioactivity (in cpm) versus the various concentrations of each mytogen.
In addition to AUC, the stimulation index (SI) is also considered, that is defined as follows. [formula]

[2] = Tolerability after oral or intravenous administration; set-up: species or system mouse (Swiss albino); conditions: mouse, in vivo, 7 days observation, read-out: Tolerability, dose
Experimental: The test was conducted in male Swiss albino mice weighing 22-24 g.
A group of animals (4 animals/dose) which had been kept fasting for 18 hours, were orally administered the compounds ST 557, ST 563, ST 564 and ST 570 dissolved in twice distilled water.
A further group of animals, which had free access to food and water, were administered intravenously the same compounds dissolved in saline it pH 7. All the animals were kept under observation for 7 days.

LD50, intravenous = conditions: mouse, in vivo, 0.9% saline
Experimental: LD50 was determined according to Carrol S. Weil's method, Biometrics, pages 249-263 (1952) in male Swiss albino mice weighing 22-24 g.
The various compounds dissolved in 0.9% saline were administered intravenously.

SMILES	% of inhibition of target tumor growth ([1]; E/T 10:1, 100 mg/kg/day os) [%]	% of inhibition of target tumor growth ([1]; E/T 20:1, 25 mg/kg/day i.p.) [%]	% of inhibition of target tumor growth ([1]; E/T 20:1, 100 mg/kg/day os) [%]	% of inhibition of target tumor growth ([1]; E/T 40:1, 25 mg/kg/day i.p.) [%]	% of inhibition of target tumor growth ([1]; E/T 40:1, 100 mg/kg/day os) [%]	AUC (area under curve, incorporated radioactivity vs mytogen concentration) (splenocytes; LPS)	S.I. (stimulation index) (splenocytes; LPS)	S.I. (stimulation index) (splenocytes; PHA)	MTD at 168 h ([2]; iv) [mg/kg]	MTD at 168 h ([2]; po, os, fasting 18 hours) [mg/kg]	LD50 (LD50, intravenous) [mg/kg]	AUC (area under curve, incorporated radioactivity vs mytogen concentration) (splenocytes; PHA)
COc1cc2c(cc1OC)CC(N(CC1CC1)CC1CC1)CC2 (stereo not drawn) [ST 557, 2-[(N,N-dicyclopropylmethyl)amino]-6,7-dimethoxytetraline]	24.3 ± 2.2	45.1 ± 1.1	38.7 ± 1.6	68.9 ± 1.4	62.8 ± 3.1	10312 ± 1253 ×10^-3 and 18914 ± 389 ×10^-3	1.22 and 1.15	1.27 and 1.13 and 1.73	> 4	> 20	28.3	
COc1cc2c(cc1OC)CC(NCC(O)c1ccc(C)cc1)CC2 (stereo not drawn) [ST 563, 2-[(N-2-hydroxy-2-(4-methylphenyl)ethyl)amino]-6,7-dimethoxytetraline]	25.0 ± 4.9	35.0 ± 1.6	47.3 ± 0.6	55.7 ± 1.4	62.8 ± 3.1		1.13 and 0.95	1.09 and 1.28 and 1.12	> 20	> 50		179 ± 3 ×10^-3 and 256 ± 21 ×10^-3 and 139 ± 5 ×10^-3
